Tests used:
Dipeptidyl peptidase 4 = Dipeptidyl peptidase 4 (Homo sapiens, UniProt P27487); assay: Inhibition of DPP4 in human plasma assessed as formation of 7-amino-4-methylcoumarin from glycyl-L-proline 4-methylcoumaryl-7-amide by fluorescence assay
Cytochrome P450 1A2 = target: T1, Cytochrome P450 1A2 (Homo sapiens, UniProt P05177); assay: Inhibition of CYP1A2; format: ADME
T1 sequence (P05177 whole entry): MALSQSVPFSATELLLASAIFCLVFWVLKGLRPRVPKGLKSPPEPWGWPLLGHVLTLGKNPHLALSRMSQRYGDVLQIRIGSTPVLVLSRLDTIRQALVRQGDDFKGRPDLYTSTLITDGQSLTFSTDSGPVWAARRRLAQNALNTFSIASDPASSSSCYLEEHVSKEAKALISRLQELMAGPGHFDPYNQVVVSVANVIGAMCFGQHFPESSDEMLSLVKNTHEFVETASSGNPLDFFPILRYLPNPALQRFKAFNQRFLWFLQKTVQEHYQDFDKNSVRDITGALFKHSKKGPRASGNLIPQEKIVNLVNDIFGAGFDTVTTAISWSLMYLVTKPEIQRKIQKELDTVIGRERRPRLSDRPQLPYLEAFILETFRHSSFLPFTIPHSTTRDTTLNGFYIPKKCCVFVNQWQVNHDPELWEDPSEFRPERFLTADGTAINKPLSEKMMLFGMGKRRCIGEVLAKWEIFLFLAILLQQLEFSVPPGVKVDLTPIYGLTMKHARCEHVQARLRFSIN

Cytochrome P450 3A4 = Cytochrome P450 3A4 (Homo sapiens, UniProt P08684); assay: Inhibition of CYP3A4; format: ADME
Cytochrome P450 3A4, sequence (P08684 whole entry): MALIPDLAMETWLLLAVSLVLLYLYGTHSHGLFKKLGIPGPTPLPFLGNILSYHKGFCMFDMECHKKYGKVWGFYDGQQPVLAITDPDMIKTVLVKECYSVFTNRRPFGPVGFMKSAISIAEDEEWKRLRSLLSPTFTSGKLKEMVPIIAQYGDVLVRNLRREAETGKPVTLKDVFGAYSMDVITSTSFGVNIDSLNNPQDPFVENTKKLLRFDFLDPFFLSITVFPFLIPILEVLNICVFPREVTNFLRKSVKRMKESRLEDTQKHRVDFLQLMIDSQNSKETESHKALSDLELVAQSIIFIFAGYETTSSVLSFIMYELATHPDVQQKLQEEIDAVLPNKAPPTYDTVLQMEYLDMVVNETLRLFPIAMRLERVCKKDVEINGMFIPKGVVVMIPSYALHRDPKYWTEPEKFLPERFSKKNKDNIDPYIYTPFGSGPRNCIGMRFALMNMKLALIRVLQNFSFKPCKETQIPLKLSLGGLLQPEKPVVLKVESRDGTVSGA

Cytochrome P450 2D6 = Cytochrome P450 2D6 (Homo sapiens, UniProt P10635); assay: Inhibition of CYP2D6; format: ADME
Cytochrome P450 2D6, sequence (P10635 whole entry): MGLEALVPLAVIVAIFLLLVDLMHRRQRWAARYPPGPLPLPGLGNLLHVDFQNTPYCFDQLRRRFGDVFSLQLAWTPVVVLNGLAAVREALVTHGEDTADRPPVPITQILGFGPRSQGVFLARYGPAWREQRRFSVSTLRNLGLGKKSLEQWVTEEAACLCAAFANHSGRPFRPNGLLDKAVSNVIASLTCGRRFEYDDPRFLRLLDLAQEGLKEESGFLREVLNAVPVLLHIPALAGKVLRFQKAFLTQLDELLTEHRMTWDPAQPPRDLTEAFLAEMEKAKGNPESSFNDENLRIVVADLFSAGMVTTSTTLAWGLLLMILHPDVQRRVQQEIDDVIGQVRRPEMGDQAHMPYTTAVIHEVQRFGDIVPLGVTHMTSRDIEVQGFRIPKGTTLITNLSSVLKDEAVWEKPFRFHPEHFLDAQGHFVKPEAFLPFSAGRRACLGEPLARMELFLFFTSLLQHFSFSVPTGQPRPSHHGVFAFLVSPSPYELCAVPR

Dipeptidyl peptidase 4, sequence (P27487 whole entry): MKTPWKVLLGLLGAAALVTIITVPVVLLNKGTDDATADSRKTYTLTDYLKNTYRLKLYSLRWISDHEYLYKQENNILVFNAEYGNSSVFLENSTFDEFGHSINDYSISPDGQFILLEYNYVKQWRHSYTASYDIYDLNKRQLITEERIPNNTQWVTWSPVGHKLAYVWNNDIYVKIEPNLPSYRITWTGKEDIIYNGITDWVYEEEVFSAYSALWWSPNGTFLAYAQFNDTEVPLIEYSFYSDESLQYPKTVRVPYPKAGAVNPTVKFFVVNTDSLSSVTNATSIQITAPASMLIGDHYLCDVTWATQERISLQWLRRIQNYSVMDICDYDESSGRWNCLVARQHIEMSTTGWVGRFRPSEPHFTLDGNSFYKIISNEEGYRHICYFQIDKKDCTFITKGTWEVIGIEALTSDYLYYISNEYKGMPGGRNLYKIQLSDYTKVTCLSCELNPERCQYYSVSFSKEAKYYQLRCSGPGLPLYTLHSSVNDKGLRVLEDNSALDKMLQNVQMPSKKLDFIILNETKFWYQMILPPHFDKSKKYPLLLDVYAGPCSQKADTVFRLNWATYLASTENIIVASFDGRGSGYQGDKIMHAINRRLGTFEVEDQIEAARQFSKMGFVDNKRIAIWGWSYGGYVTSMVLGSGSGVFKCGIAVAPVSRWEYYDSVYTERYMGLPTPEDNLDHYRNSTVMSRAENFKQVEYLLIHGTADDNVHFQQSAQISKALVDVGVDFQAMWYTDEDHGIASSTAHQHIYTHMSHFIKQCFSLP

| IC50 (Dipeptidyl peptidase 4) | IC50 (Cytochrome P450 1A2) | IC50 (Cytochrome P450 3A4) | IC50 (Cytochrome P450 2D6) | SMILES |
| --- | --- | --- | --- | --- |
| > 1000 nM | – | – | – | CC[C@]1(N)CCCN(c2cc3c(c(=O)n(C)c(=O)n3C)n2Cc2cc(F)ccc2C#N)C1 |
| 0.34 nM | 14700 nM | 1600 nM | 7500 nM | Cn1c(=O)c2c(cc(N3CCC[C@@H](N)C3)n2Cc2cc(F)ccc2C#N)n(C)c1=O |
| 26 nM | – | – | – | CC[C@@]1(N)CCCN(c2cc3c(c(=O)n(C)c(=O)n3C)n2Cc2cc(F)ccc2C#N)C1 |

— ChEMBL document CHEMBL1817578, “2-({6-[(3R)-3-amino-3-methylpiperidine-1-yl]-1,3-dimethyl-2,4-dioxo-1,2,3,4-tetrahydro-5H-pyrrolo[3,2-d]pyrimidine-5-yl}methyl)-4-fluorobenzonitrile (DSR-12727): a potent, orally active dipeptidyl peptidase IV inhibitor without mechanism-based inactivation of CYP3A” (Bioorg Med Chem, 2011)
